Experimental data published in patent publication US10173991B2, “Sulfone amide linked benzothiazole inhibitors of endothelial lipase” (BRISTOL-MYERS SQUIBB COMPANY, priority 2014, dated 2019).

Molecular target: Endothelial lipase (EL) (Homo sapiens (Human), UniProt Q9Y5X9)
Experiment: Endothelial lipase (EL) enzymatic assay with fluorescent substrate A10070 in DMPG vesicles
Type: biochemical
Conditions: not given
How it was run: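 Vesicles prepared: A10070 dried with DMPG, resuspended in HEPES pH 8.0/NaCl/EDTA, sonicated on ice. Enzyme incubated with compound 30 min at 37° C. Reaction started with 1:10 diluted vesicles. Fluorescence (490/530 nm) followed 60 min; slope from 300–900 secs gives rate.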

Chain of Endothelial lipase (EL) (Q9Y5X9 21-500): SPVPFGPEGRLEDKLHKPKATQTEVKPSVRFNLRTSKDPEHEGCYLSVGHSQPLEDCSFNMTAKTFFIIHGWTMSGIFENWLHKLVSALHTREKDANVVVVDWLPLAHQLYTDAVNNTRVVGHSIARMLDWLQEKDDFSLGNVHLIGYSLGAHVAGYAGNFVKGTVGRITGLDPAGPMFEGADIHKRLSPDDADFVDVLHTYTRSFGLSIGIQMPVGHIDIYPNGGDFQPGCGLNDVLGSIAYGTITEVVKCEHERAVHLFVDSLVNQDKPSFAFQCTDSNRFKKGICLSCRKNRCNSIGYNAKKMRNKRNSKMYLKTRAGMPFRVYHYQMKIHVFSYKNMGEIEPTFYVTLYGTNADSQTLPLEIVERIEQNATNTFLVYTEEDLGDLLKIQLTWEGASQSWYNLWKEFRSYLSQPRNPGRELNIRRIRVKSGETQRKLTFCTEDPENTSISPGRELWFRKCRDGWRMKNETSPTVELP

Row | IC50 [nM] | Compound
1 | 59 | COCCS(=O)(=O)C(C(=O)NCC(=O)NCC1CC1)c1nc2cc(-c3ccc(F)nc3)ccc2s1 (stereo not drawn) [Example 389, N-{[(cyclopropyl-methyl)carbamoyl]methyl}-2-[5-(6-fluoropyridin-3-yl)-1,3-benzothiazol-2-yl]-2-(2-methoxyethane-sulfonyl)acetamide]
2 | 102 | COCCNC(=O)CNC(=O)C(c1nc2cc(-c3ccc(F)nc3)ccc2s1)S(=O)(=O)CCOC (stereo not drawn) [Example 390, 2-[5-(6-fluoropyridin-3-yl)-1,3-benzothiazol-2-yl]-2-(2-methoxyethane-sulfonyl)-N-{[(2-methoxyethyl)carbamoyl]methyl} acetamide]
3 | 68 | COCCS(=O)(=O)C(C(=O)NCC(=O)NC1(c2ncon2)CC1)c1nc2ccc(-c3ccc(F)nc3)cc2s1 (stereo not drawn) [Example 391, 2-[6-(6-fluoropyridin-3-yl)-1,3-benzothiazol-2-yl]-2-(2-methoxyethane-sulfonyl)-N-({[1-(1,2,4-oxadiazol-3-yl)cyclopropyl]carbamoyl}methyl) acetamide]
4 | 14 | COCCS(=O)(=O)C(C(=O)NCC(=O)NC1(C)CC1)c1nc2cc(-c3ccc(F)nc3)ccc2s1 (stereo not drawn) [Example 392, 2-[5-(6-fluoropyridin-3-yl)-1,3-benzothiazol-2-yl]-2-(2-methoxyethane-sulfonyl)-N-{[(1-methylcyclopropyl)carbamoyl]methyl} acetamide]
5 | 4 | COCCS(=O)(=O)C(C(=O)NCC(=O)NC1CC1)c1nc2cc(-c3cccc(C(=O)NCC(F)(F)F)c3)ccc2s1 (stereo not drawn) [Example 394, 3-[2-({[(cyclopropyl-carbamoyl)methyl]carbamoyl}(2-methoxyethane-sulfonyl)methyl)-1,3-benzothiazol-5-yl]-N-(2,2,2-trifluoroethyl) benzamide]
6 | 4 | COCCS(=O)(=O)C(C(=O)NCC(=O)NC1CC1)c1nc2cc(-c3cccc(C(=O)N4CCOCC4)c3)ccc2s1 (stereo not drawn) [Example 395, N-[(cyclopropyl-carbamoyl)methyl]-2-(2-methoxyethane-sulfonyl)-2-{5-[3-(morpholine-4-arbonyl)phenyl}-1,3-benzothiazol-2-yl}acetamide]
7 | 8 | COCCS(=O)(=O)C(C(=O)NCC(=O)NC1CC1)c1nc2cc(-c3cccc(C(=O)N4CCC(F)(F)C4)c3)ccc2s1 (stereo not drawn) [Example 396, N-[(cyclopropyl-carbamoyl)methyl]-2-{5-[3-(3,3-difluoro-pyrrolidine-1-carbonyl)phenyl]-1,3-benzothiazol-2-yl}-2-(2-methoxyethane-sulfonyl)acetamide]
8 | 19 | COCCS(=O)(=O)C(C(=O)NCC(=O)NC1CC1)c1nc2cc(-c3cccc(C(=O)N4CCN(C)CC4)c3)ccc2s1 (stereo not drawn) [Example 397, N-[(cyclopropyl-carbamoyl)methyl]-2-(2-methoxyethane-sulfonyl)-2-{5-[3-(4-methylpiperazine-1-carbonyl)phenyl]-1,3-benzothiazol-2-yl}acetamide]
9 | 38 | COCCS(=O)(=O)C(C(=O)NCC(=O)NC1CC1)c1nc2cc(-c3cccc(C(=O)N(C)C)c3)ccc2s1 (stereo not drawn) [Example 398, 3-[2-({[(cyclopropyl-carbamoyl)methyl]carbamoyl}(2-methoxyethane-sulfonyl)methyl)-1,3-benzothiazol-5-yl]-N,N-dimethyl-benzamide]
10 | 63 | COCCS(=O)(=O)C(C(=O)NCC(=O)NC1CC1)c1nc2cc(-c3cccc(C(=O)NCCO)c3)ccc2s1 (stereo not drawn) [Example 399, 3-[2-({[(cyclopropyl-carbamoyl)methyl]carbamoyl}(2-methoxyethane-sulfonyl)methyl)-1,3-benzothiazol-5-yl]-N-(2-hydroxyethyl) benzamide]
11 | 9 | COCCNC(=O)c1cccc(-c2ccc3sc(C(C(=O)NCC(=O)NC4CC4)S(=O)(=O)CCOC)nc3c2)c1 (stereo not drawn) [Example 400, 3-[2-({[(cyclopropyl-carbamoyl)methyl]carbamoyl}(2-methoxyethane-sulfonyl)methyl)-1,3-benzothiazol-5-yl]-N-(2-methoxyethyl) benzamide]
12 | 5 | COC1(C)CN(C(=O)c2ccc(-c3ccc4nc(C(C(=O)NCC(=O)NC5CC5)S(=O)(=O)c5ccccc5)sc4c3)cc2)C1 (stereo not drawn) [Example 401, 2-(benzenesulfonyl)-N-[(cyclopropyl-carbamoyl)methyl]-2-{6-[4-(3-methoxy-3-methylazetidine-1-carbonyl)phenyl]-1,3-benzothiazol-2-yl}acetamide]
13 | 6 | CC1(O)CN(C(=O)c2ccc(-c3ccc4nc(C(C(=O)NCC(=O)NC5CC5)S(=O)(=O)c5ccccc5)sc4c3)cc2)C1 (stereo not drawn) [Example 402, 2-(benzenesulfonyl)-N-[(cyclopropyl-carbamoyl)methyl]-2-{6-[4-(3-hydroxy-3-methylazetidine-1-carbonyl)phenyl]-1,3-benzothiazol-2-yl}acetamide]
14 | 8 | COCCS(=O)(=O)C(C(=O)NCC(=O)NC1CC1)c1nc2ccc(-c3ccc(C(=O)N4CC[C@H](OC)C4)cc3)cc2s1 (stereo partly drawn) [Example 403, N-[(cyclopropyl-carbamoyl)methyl]-2-(2-methoxyethane-sulfonyl)-2-(6-{4-[(3S)-3-methoxy-pyrrolidine-1-carbonyl]phenyl}-1,3-benzothiazol-2-yl)acetamide]
15 | 10 | COCCS(=O)(=O)C(C(=O)NCC(=O)NC1CC1)c1nc2ccc(-c3ccc(C(=O)N4CC(F)C4)cc3)cc2s1 (stereo not drawn) [Example 404]
16 | 12 | COCCS(=O)(=O)C(C(=O)NCC(=O)NC1CC1)c1nc2ccc(-c3ccc(C(=O)N4CC(C)(O)C4)cc3)cc2s1 (stereo not drawn) [Example 405, N-[(cyclopropyl-carbamoyl)methyl]-2-{6-[4-(3-hydroxy-3-methylazetidine-1-carbonyl)phenyl]-1,3-benzothiazol-2-yl}-2-(2-methoxyethane-sulfonyl)acetamide]
17 | 13 | COCCS(=O)(=O)C(C(=O)NCC(=O)NC1CC1)c1nc2ccc(-c3ccc(C(=O)N4CC(F)(F)C4)cc3)cc2s1 (stereo not drawn) [Example 406, N-[(cyclopropyl-carbamoyl)methyl]-2-{6-[4-(3,3-difluoroazetidine-1-carbonyl)phenyl]-1,3-benzothiazol-2-yl}-2-(2-methoxyethane-sulfonyl)acetamide]
18 | 24 | COCCS(=O)(=O)C(C(=O)NCC(=O)NC1CC1)c1nc2ccc(-c3ccc(C(=O)N4CC[C@@H](OC)C4)cc3)cc2s1 (stereo partly drawn) [Example 407, N-[(cyclopropyl-carbamoyl)methyl]-2-(2-methoxyethane-sulfonyl)-2-(6-{4-[(3R)-3-methoxy-pyrrolidine-1-carbonyl]phenyl}-1,3-benzothiazol-2-yl)acetamide]
19 | 48 | COCCS(=O)(=O)C(C(=O)NCC(=O)NC1CC1)c1nc2ccc(-c3ccc(C(=O)O)cc3)cc2s1 (stereo not drawn) [Example 408, 4-[2-({[(cyclopropyl-carbamoyl)methyl]carbamoyl}(2-methoxyethane-sulfonyl)methyl)-1,3-benzothiazol-6-yl]benzoic acid]
20 | 23 | COCCNC(=O)c1ccc(-c2ccc3nc(C(C(=O)NCC(=O)NC4CC4)S(=O)(=O)CCOC)sc3c2)cc1OC (stereo not drawn) [Example 409, 4-[2-({[(cyclopropyl-carbamoyl)methyl]carbamoyl}(2-methoxyethane-sulfonyl)methyl)-1,3-benzothiazol-6-yl]-2-methoxy-N-(2-methoxyethyl) benzamide]
21 | 53 | COCCNC(=O)c1ccc(-c2ccc3nc(C(C(=O)NCC(=O)NC4CC4)S(C)(=O)=O)sc3c2)cc1OC (stereo not drawn) [Example 410, 4-[2-({[(cyclopropyl-carbamoyl)methyl]carbamoyl} (methanesulfonyl)methyl)-1,3-benzothiazol-6-yl]-2-methoxy-N-(2-methoxyethyl) benzamide]
22 | 14 | Cc1ccn(-c2cccc(-c3ccc4nc(C(C(=O)NCC(=O)NC5CC5)S(C)(=O)=O)sc4c3)n2)n1 (stereo not drawn) [Example 412, N-[(cyclopropyl-carbamoyl)methyl]-2-methanesulfonyl-2-{6-[6-(3-methyl-1H-pyrazol-1-yl)pyridin-2-yl]-1,3-benzothiazol-2-yl}acetamide]
23 | 7 | Cc1cnn(-c2cccc(-c3ccc4nc(C(C(=O)NCC(=O)NC5CC5)S(C)(=O)=O)sc4c3)n2)c1 (stereo not drawn) [Example 413, N-[(cyclopropyl-carbamoyl)methyl]-2-methanesulfonyl-2-{6-[6-(4-methyl-1H-pyrazol-1-yl)pyridin-2-yl]-1,3-benzothiazol-2-yl}acetamide]
24 | 49 | COCCS(=O)(=O)C(C(=O)NCC(=O)NC1CC1)c1nc2cc(F)c(-c3ccc(-c4cc(O)n[nH]4)cc3)cc2s1 (stereo not drawn) [Example 415, N-[(cyclopropyl-carbamoyl)methyl]-2-{5-fluoro-6-[4-(3-hydroxy-1H-pyrazol-5-yl)phenyl]-1,3-benzothiazol-2-yl}-2-(2-methoxyethane-sulfonyl)acetamide]
25 | 11 | COCCS(=O)(=O)C(C(=O)NCC(=O)NC1CC1)c1nc2cc(F)c(-c3ccc4c(c3)CCN4C(C)=O)cc2s1 (stereo not drawn) [Example 416, 2-[6-(1-acetyl-2,3-dihydro-1H-indol-5-yl)-5-fluoro-1,3-benzothiazol-2-yl]-N-[(cyclopropyl-carbamoyl)methyl]-2-(2-methoxyethane-sulfonyl)acetamide]

Same assay, conditions: EL from conditioned media of HT-1080 cells; 30 min preincubation at 37° C.

Row | IC50 [nM] | Compound
26 | 33 | COCCS(=O)(=O)C(C(=O)NCC(=O)NC1CC1)c1nc2ccc(-c3ccc(C(=O)N(C)C4CC4)cc3)cc2s1 (stereo not drawn) [Example 393, N-Cyclopropyl-4-(2-(2-((2-(cyclopropylamino)-2-oxoethyl)amino)-1-((2-methoxyethyl)sulfonyl)-2-oxoethyl)benzo[d]thiazol-6-yl)-N-methylbenzamide]
27 | 2.1 | COCCS(=O)(=O)C(C(=O)NCC(=O)NC1CC1)c1nc2cc(F)c(-c3ccc(-c4ncon4)cc3)cc2s1 (stereo not drawn) [Example 411, 2-(6-(4-(1,2,4-Oxadiazol-3-yl)phenyl)-5-fluorobenzo[d]thiazol-2-yl)-N-(2-(cyclopropylamino)-2-oxoethyl)-2-((2-methoxyethyl)sulfonyl)acetamide]
